Source: PMC9785169, “New Insights Regarding Hemin Inhibition of the Purified Rat Brain 2-Oxoglutarate Carrier and Relationships with Mitochondrial Dysfunction” (Journal of Clinical Medicine, 2022)

Molecular target: T1, 2-oxoglutarate/malate carrier (OGC) (Rattus norvegicus, UniProt P97700)
T1 construct: gene Slc25a11; OGC purified from rat brain mitochondria, reconstituted into proteoliposomes
T1 sequence (P97700 2-314): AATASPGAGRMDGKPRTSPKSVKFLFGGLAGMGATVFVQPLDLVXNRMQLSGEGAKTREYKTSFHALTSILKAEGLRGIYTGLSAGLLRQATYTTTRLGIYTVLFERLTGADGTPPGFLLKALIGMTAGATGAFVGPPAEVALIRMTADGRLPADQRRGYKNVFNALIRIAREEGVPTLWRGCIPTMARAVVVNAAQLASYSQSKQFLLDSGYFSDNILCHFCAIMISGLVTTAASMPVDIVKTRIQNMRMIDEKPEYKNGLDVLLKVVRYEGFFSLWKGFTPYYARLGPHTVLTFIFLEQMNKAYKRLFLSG
Assay: […]malate uptake inhibition in proteoliposomes reconstituted with purified OGC, internal hemin
Type: biochemical

Question: With `C=CC1=C(C)C2=Cc3c(C=C)c(C)c4[n]3[Fe]([Cl])[n]3c(c(C)c(CCC(=O)O)c3=CC3=NC(=C4)C(C)=C3CCC(=O)O)=CC1=N2` [hemin] as the molecule, how does the IC50 read?
Answer: 82 ± 7 nM
